Assay results from patent publication US11098058B2, “Bicyclic ketone compounds and methods of use thereof” (Genentech, Inc., priority 2017, dated 2021).
Where two headings read alike, the source gives them in different places.

Molecular target: human RIP1 kinase domain (2-375) (Homo sapiens (Human), UniProt Q13546)
Conditions: 50 nM enzyme, 50 μM ATP, 2 hours incubation
[1] = RIP1 kinase inhibition, tight-binding apparent Ki
[2] = tight-binding apparent inhibition constant (Ki app, Morrison equation)

human RIP1 kinase domain (2-375), sequence (Q13546 2-375): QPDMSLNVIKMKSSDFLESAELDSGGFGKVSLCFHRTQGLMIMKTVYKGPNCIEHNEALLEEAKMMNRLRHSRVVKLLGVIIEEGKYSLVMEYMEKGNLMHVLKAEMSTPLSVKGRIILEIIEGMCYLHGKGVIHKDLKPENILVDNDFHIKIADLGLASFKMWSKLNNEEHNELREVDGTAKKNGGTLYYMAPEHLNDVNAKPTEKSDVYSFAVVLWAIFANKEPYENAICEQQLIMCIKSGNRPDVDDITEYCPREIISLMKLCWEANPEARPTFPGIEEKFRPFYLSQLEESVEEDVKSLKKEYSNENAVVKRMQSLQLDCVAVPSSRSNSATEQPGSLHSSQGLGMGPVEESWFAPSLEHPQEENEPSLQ
Method: RIP1 Kinase Inhibition Assays (Biochemical Assay)
The ability of the receptor interacting protein kinase (RIPK1) to catalyze the hydrolysis of adenosine-5′-triphosphate (ATP) is monitored using the Transcreener ADP (adenosine-5′-diphosphate) assay (BellBrook Labs). Purified human RIP1 kinase domain (2-375) (50 nM) derived from a baculovirus-infected insect cell expression system is incubated with test compounds for 2 hours in 50 mM Hepes buffer (pH 7.5) containing 30 mM MgCl2, 1 mM dithiothreitol, 50 μM ATP, 0.002% Brij-35, and 0.5% dimethyl sulfoxide (DMSO). […] The tracer bound to the antibody is displaced by the ADP generated during the RIP1K reaction, which causes a decrease in fluorescence polarization that is measured by laser excitation at 633 nm with a FP microplate reader M1000. Fractional activity was plotted against test article concentration. Using Genedata Screener software (Genedata; Basel, Switzerland), the data were fit to the tight-binding apparent inhibition constant (Ki^app) Morrison equation [Williams, J. W. and Morrison, J. F. (1979) The kinetics of reversible tight-binding inhibition. […] The following equation was used to calculate fractional activity and Ki^app:
[formula] where [E]T and [I]T are the total concentrations of active enzyme and test article, respectively.

Structure (SMILES)	Ki [1] [nM]	Ki [2] [nM]
O=C(c1nc2n(n1)[C@H](c1ccccc1)C[C@@H]2F)[C@H]1C[C@@H]2CC[C@H]1O2 (single isomer, unassigned) [Example 141]	9	
O=C(c1nc2n(n1)[C@H](c1ccccc1)CCC2)C1CC1 (single isomer, unassigned) [Example 146]	70	
O=C(c1nc2n(n1)[C@H](c1ncccc1F)C[C@@H]2F)C1CC1 (single isomer, unassigned) [Example 150]	10	
O=C(c1nc2n(n1)[C@H](c1ncccc1F)C[C@H]2F)C1CC1 (single isomer, unassigned) [Example 151]	230	
Cn1cc([C@@H]2C[C@H](F)c3nc(C(=O)C4CC4)nn32)cn1 (single isomer, unassigned) [Example 152]	30	
COc1cccc([C@@H]2C[C@H](F)c3nc(C(=O)C4CC4)nn32)c1 (single isomer, unassigned) [Example 156]	20	
O=C(c1cc2n(n1)[C@H](c1ccccc1)C[C@@H]2F)C1CC1 (single isomer, unassigned) [Example 159]	5	
CCC(=O)c1cn2c(n1)C(c1ccccc1)CC2 (stereo not shown) [Example 17, 1-(7-phenyl-6,7-dihydro-5H-pyrrolo[1,2-a]imidazol-2-yl)propan-1-one]		940
CCC(=O)c1cc2n(n1)C(c1ccccc1)CC2 (stereo not shown) [Example 19, 1-(6-phenyl-5,6-dihydro-4H-pyrrolo[1,2-b]pyrazol-2-yl)propan-1-one]		44.2
CC(C)(C)C(=O)c1nc2n(n1)C(c1ccccc1)CC2F (stereo not shown) [Example 44, 1-(7-fluoro-5-phenyl-6,7-dihydro-5H-pyrrolo[1,2-b][1,2,4]triazol-2-yl)-2,2-dimethyl-propan-1-one]		11.5
CC(C)C(=O)c1nc2n(n1)C(c1ccccc1)CC2F (stereo not shown) [Example 45, 1-(7-fluoro-5-phenyl-6,7-dihydro-5H-pyrrolo[1,2-b][1,2,4]triazol-2-yl)-2-methyl-propan-1-one]		14.3
O=C(c1nc2n(n1)[C@H](c1ccccc1)C[C@@H]2F)C1CC2(C1)CC2(F)F (stereo partly drawn) [Example 70, (2,2-difluorospiro[2.3]hexan-5-yl)-[(5S,7S)-7-fluoro-5-phenyl-6,7-dihydro-5H-pyrrolo[1,2-b][1,2,4]triazol-2-yl]methanone]	17	
O=C(c1nc2n(n1)[C@H](c1ccccc1)C[C@@H]2F)C1CC1c1ccccn1 (stereo partly drawn) [Example 74, [2-(2-pyridyl)cyclopropyl]-[(5S,7S)-7-fluoro-5-phenyl-6,7-dihydro-5H-pyrrolo[1,2-b][1,2,4]triazol-2-yl]methanone]	18	
O=C(c1nc2n(n1)[C@H](c1ccccc1)C[C@@H]2F)C1(CF)CC1 [Example 79, [1-(fluoromethyl)cyclopropyl]-[(5S,7S)-7-fluoro-5-phenyl-6,7-dihydro-5H-pyrrolo[1,2-b][1,2,4]triazol-2-yl]methanone]	3.4	
O=C(c1nc2n(n1)[C@H](c1ccccc1)C[C@@H]2F)C1CC1C(F)(F)F (stereo partly drawn) [Example 81, [(5S,7S)-7-fluoro-5-phenyl-6,7-dihydro-5H-pyrrolo[1,2-b][1,2,4]triazol-2-yl]-[2-(trifluoromethyl)cyclopropyl]methanone]	28	
O=C(c1nc2n(n1)[C@H](c1ccccc1Cl)C[C@@H]2F)C1CC1 [Example 100, cyclopropyl-[(5S,7S)-5-(2-chlorophenyl)-7-fluoro-6,7-dihydro-5H-pyrrolo[1,2-b][1,2,4]triazol-2-yl]methanone]	3.5	
O=C(c1nc2n(n1)[C@H](c1cc(F)ccc1F)C[C@@H]2F)C1CC1 [Example 101, cyclopropyl-[(5S,7S)-5-(2,5-difluorophenyl)-7-fluoro-6,7-dihydro-5H-pyrrolo[1,2-b][1,2,4]triazol-2-yl]methanone]	3.6	
O=C(c1nc2n(n1)C(c1ccccc1)CCC2)C1CC1 (stereo not shown) [Example 145, cyclopropyl-(5-phenyl-5,6,7,8-tetrahydro-[1,2,4]triazolo[1,5-a]pyridin-2-yl)methanone]	260	
Cc1oncc1C1CC(F)c2nc(C(=O)C3CC3)nn21 (stereo not shown) [Example 153, cyclopropyl(7-fluoro-5-(5-methylisoxazol-4-yl)-6,7-dihydro-5H-pyrrolo[1,2-b][1,2,4]triazol-2-yl)methanone]	380	
Cn1cc(Cl)c([C@@H]2C[C@H](F)c3nc(C(=O)C4CC4)nn32)n1 [Example 154, ((5S,7S)-5-(4-chloro-1-methyl-1H-pyrazol-3-yl)-7-fluoro-6,7-dihydro-5H-pyrrolo[1,2-b][1,2,4]triazol-2-yl)(cyclopropyl)methanone]	32	
Cn1cc(Cl)c([C@@H]2C[C@@H](F)c3nc(C(=O)C4CC4)nn32)n1 [Example 155, ((5S,7R)-5-(4-chloro-1-methyl-1H-pyrazol-3-yl)-7-fluoro-6,7-dihydro-5H-pyrrolo[1,2-b][1,2,4]triazol-2-yl)(cyclopropyl)methanone]	970	
O=C(c1nc2n(n1)C(c1ccccc1)CC2)C1(Cn2cccn2)CC1 (stereo not shown) [Example 158, (5-phenyl-6,7-dihydro-5H-pyrrolo[1,2-b][1,2,4]triazol-2-yl)-[1-(pyrazol-1-ylmethyl)cyclopropyl]methanone]	650	
